Measured values reported in ChEMBL document CHEMBL1833881, “Synthesis of a new trifluoromethylketone analogue of l-arginine and contrasting inhibitory activity against human arginase I and histone deacetylase 8” (Bioorg Med Chem Lett, 2011).
Values belong to the compound of their own block, whether it stands above or below them. Active and inactive are the calls of the source. The calls are words filed in the database; no cut-off is given here.

Assays:
[1] = biological target: T1, Arginase-1 (Homo sapiens, UniProt P05089); test: (§1) Displacement of [14C-guanidino]-L-arginine from human recombinant full length arginase 1 expressed in Escherichia coli BL21(DE3) by fixed point assay
T1 sequence (P05089 whole entry): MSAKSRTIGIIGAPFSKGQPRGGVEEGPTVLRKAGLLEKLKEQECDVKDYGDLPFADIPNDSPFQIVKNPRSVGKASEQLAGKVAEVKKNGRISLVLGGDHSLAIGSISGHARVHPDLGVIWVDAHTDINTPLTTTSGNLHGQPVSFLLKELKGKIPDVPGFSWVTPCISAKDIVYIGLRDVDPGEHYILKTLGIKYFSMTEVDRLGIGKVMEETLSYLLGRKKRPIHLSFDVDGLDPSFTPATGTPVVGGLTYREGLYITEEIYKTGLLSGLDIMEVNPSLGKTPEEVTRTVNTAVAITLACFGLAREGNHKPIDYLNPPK

[2] = biological target: Histone deacetylase 4 (Homo sapiens, UniProt P56524); test: Inhibition of human HDAC4 catalytic domain (residues Thr648-Thr1057) expressed in Escherichia coli BL21using fluorogenic substrate by fluorescence assay
[3] = Ratio of IC50 for Mycoplana ramosa acetylpolyamine amidohydrolase to IC50 for HDAC8
[4] = biological target: T2, Arginase-1 (Homo sapiens) (UniProt P05089); test: as §1
T2 sequence (whole entry): T1 sequence (P05089 whole entry)

Chain of Histone deacetylase 4 (P56524 whole entry, the tested form may be a part): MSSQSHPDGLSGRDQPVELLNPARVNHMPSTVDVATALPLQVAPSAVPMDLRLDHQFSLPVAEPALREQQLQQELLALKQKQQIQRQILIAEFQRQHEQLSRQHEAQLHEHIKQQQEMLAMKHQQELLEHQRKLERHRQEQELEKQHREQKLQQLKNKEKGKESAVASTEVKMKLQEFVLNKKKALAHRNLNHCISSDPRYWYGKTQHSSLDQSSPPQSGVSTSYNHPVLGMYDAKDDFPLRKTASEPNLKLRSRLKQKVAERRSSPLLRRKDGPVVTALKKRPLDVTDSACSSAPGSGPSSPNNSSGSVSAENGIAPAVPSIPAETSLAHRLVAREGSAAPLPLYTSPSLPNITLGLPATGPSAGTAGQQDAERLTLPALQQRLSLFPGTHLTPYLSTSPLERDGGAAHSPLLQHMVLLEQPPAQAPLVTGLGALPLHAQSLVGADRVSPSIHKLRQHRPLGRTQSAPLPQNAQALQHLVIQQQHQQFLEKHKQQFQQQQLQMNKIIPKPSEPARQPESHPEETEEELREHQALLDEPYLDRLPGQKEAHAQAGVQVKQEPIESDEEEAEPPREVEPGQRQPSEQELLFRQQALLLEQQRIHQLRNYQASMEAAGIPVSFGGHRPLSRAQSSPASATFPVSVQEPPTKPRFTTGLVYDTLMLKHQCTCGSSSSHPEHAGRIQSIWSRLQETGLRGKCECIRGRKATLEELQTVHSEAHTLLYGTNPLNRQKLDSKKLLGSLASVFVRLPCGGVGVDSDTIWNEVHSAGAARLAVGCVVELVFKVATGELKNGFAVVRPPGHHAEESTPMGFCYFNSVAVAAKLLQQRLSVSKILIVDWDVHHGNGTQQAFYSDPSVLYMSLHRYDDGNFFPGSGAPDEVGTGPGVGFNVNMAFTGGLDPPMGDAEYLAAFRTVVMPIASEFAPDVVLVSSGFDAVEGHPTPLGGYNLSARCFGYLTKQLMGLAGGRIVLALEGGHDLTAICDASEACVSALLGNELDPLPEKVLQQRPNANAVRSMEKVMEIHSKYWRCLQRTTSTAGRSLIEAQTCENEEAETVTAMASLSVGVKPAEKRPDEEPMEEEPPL

Kd [1]: 60 µM
Compound: N[C@@H](CCCCC=O)C(=O)O

IC50 [2]: 0.367 µM
Compound: O=C(c1ccc(C(=O)C(F)(F)F)s1)N1CCn2c(-c3ccccc3)cnc2C1

Ratio IC50 [3]: 73 | inhibition [4]: inactive
Compound: N[C@@H](CCCCC(=O)C(F)(F)F)C(=O)O
